In patent US20180289678A1, “PHARMACEUTICAL COMPOSITION, PHARMACEUTICAL DOSAGE FORM, PROCESS FOR THEIR PREPARATION, METHODS FOR TREATING AND USES THEREOF” (Boehringer Ingelheim International GmbH, priority 2009, published 2018):
Read-outs that look alike come from different tables or passages of the source.

Experiments:
[1] = Study .1: single dose study in healthy volunteers, pharmacokinetic parameters; assay type: in vivo, human; settings: Study .1, fasted
Description: 5. Pharmacokinetic Parameters
The pharmacokinetic parameters of pharmaceutical compositions and pharmaceutical dosage forms are assessed in healthy volunteer and patient populations. In the studies shown below, the participants fasted on the day of sampling, unless as otherwise stated (see for example study .3). The active substance in the studies below is the compound (I.9), preferably in the crystalline form (I.9X), and the dose of active ingredient is indicated in mg.
For the quantification of plasma concentrations of the active ingredient, 2.7 mL of blood was collected and transferred into an EDTA (ethylendiaminetetraacetic acid)-anticoagulant blood drawing tube. The EDTA-anticoagulated blood samples were centrifuged immediately after collection. Centrifugation lasted for about 10 minutes (at about 2,000×gf to 4,000×gf) at 4-8° C. or within 30 minutes while stored on ice. Concentrations of active substance in EDTA human plasma samples were quantitated using a HPLC/MS/MS method. The assay method comprised a solid phase supported liquid-liquid extraction of human plasma coupled with HPLC/MS/MS determination of the extracted samples. The HPLC/MS/MS assay was validated for the range of 1.11 to 1110 nM in human plasma.
Study .1: Single dose study in a healthy volunteer population of N=72. Healthy volunteers were administered tablets as described in Example 10 (section Examples of formulations).
AUC0-inf:area under the concentration-time curve of the analyte in plasma over the time interval from 0 extrapolated to infinity.
Cmax: maximum concentration of the analyte in plasma.
Tmax: time from dosing to maximum concentration.

[2] = system: Zucker Diabetic Fatty (ZDF) rats; assay: Oral glucose tolerance test in ZDF rats; assay type: in vivo, rat; settings: oral glucose load
Description: According to a first example an oral glucose tolerance test is performed in overnight fasted 9-weeks old male Zucker Diabetic Fatty (ZDF) rats (ZDF/Crl-Lepr^fa). A pre-dose blood sample is obtained by tail bleed. Blood glucose is measured with a glucometer, and the animals are randomized for blood glucose (n=5/group). Subsequently, the groups receive a single oral administration of either vehicle alone (0.5% aqueous hydroxyethylcellulose containing 3 mM HCl and 0.015% Polysorbat 80) or vehicle containing the SGLT2 inhibitor. The animals receive an oral glucose load (2 g/kg) 30 min after compound administration. Blood glucose is measured in tail blood 30 min, 60 min, 90 min, 120 min, and 180 min after the glucose challenge. Glucose excursion is quantified by calculating the reactive glucose AUC. The data are presented as mean ±SEM. The two-sided unpaired Student t-test is used for statistical comparison of the control group and the active groups.
Compound (I.9) (1-chloro-4-(β-D-glucopyranos-1-yl)-2-[4-((S)-tetrahydrofuran-3-yloxy)-benzyl]-benzene) was orally administered to ZDF rats at doses of 0.3 mg/kg, 3 mg/kg or 30 mg/kg body weight. Compound (I.9) reduced glucose excursion by 15% at 0.3 mg/kg (not significant), by 62% at 3 mg/kg (p<0.001) and by 89% at 30 mg/kg (p<0.001).

- AUC0-inf Max ([1]; 2.5 mg single dose): 0.448 µM·h
- AUC0-inf Min ([1]; 2.5 mg single dose): 0.336 µM·h
- AUC0-inf,norm Max ([1]; 2.5 mg single dose): 179 nmol·h/L/mg
- AUC0-inf,norm Median ([1]; 2.5 mg single dose): 159 nmol·h/L/mg
- AUC0-inf,norm Min ([1]; 2.5 mg single dose): 134 nmol·h/L/mg
- AUC0-inf,norm gMean ([1]; 2.5 mg single dose): 158 nmol·h/L/mg
- Cmax,norm Max ([1]; 2.5 mg single dose): 24 nmol/L/mg
- Cmax,norm Median ([1]; 2.5 mg single dose): 22 nmol/L/mg
- Cmax,norm Min ([1]; 2.5 mg single dose): 17 nmol/L/mg
- Cmax,norm gMean ([1]; 2.5 mg single dose): 21 nmol/L/mg
- tmax Max ([1]; 2.5 mg single dose): 2.98 h
- tmax Min ([1]; 2.5 mg single dose): 0.983 h
- Cmax ([1]; 2.5 mg single dose, read-out: Cmax Max): 60.8 nM
- Cmax ([1]; 2.5 mg single dose, read-out: Cmax Min): 42.8 nM
- AUC0-inf Max ([1]; 10 mg single dose): 2.18 µM·h
- AUC0-inf Min ([1]; 10 mg single dose): 1.17 µM·h
- AUC0-inf,norm Max ([1]; 10 mg single dose): 218 nmol·h/L/mg
- AUC0-inf,norm Median ([1]; 10 mg single dose): 178 nmol·h/L/mg
- AUC0-inf,norm Min ([1]; 10 mg single dose): 117 nmol·h/L/mg
- AUC0-inf,norm gMean ([1]; 10 mg single dose): 169 nmol·h/L/mg
- Cmax,norm Max ([1]; 10 mg single dose): 27 nmol/L/mg
- Cmax,norm Median ([1]; 10 mg single dose): 24 nmol/L/mg
- Cmax,norm Min ([1]; 10 mg single dose): 14 nmol/L/mg
- Cmax,norm gMean ([1]; 10 mg single dose): 22 nmol/L/mg
- tmax Max ([1]; 10 mg single dose): 2.03 h
- tmax Min ([1]; 10 mg single dose): 0.983 h
- Cmax ([1]; 10 mg single dose, read-out: Cmax Max): 268 nM
- Cmax ([1]; 10 mg single dose, read-out: Cmax Min): 143 nM
- AUC0-inf Max ([1]; 25 mg single dose): 4.91 µM·h
- AUC0-inf Min ([1]; 25 mg single dose): 2.66 µM·h
- AUC0-inf,norm Max ([1]; 25 mg single dose): 196 nmol·h/L/mg
- AUC0-inf,norm Median ([1]; 25 mg single dose): 159 nmol·h/L/mg
- AUC0-inf,norm Min ([1]; 25 mg single dose): 106 nmol·h/L/mg
- AUC0-inf,norm gMean ([1]; 25 mg single dose): 150 nmol·h/L/mg
- Cmax,norm Max ([1]; 25 mg single dose): 27 nmol/L/mg
- Cmax,norm Median ([1]; 25 mg single dose): 21 nmol/L/mg
- Cmax,norm Min ([1]; 25 mg single dose): 13 nmol/L/mg
- Cmax,norm gMean ([1]; 25 mg single dose): 20 nmol/L/mg
- tmax Max ([1]; 25 mg single dose): 3.02 h
- tmax Min ([1]; 25 mg single dose): 1.00 h
- Cmax ([1]; 25 mg single dose, read-out: Cmax Max): 678 nM
- Cmax ([1]; 25 mg single dose, read-out: Cmax Min): 334 nM
- AUC0-inf Max ([1]; 50 mg single dose): 11.5 µM·h
- AUC0-inf Min ([1]; 50 mg single dose): 7.27 µM·h
- AUC0-inf,norm Max ([1]; 50 mg single dose): 230 nmol·h/L/mg
- AUC0-inf,norm Median ([1]; 50 mg single dose): 166 nmol·h/L/mg
- AUC0-inf,norm Min ([1]; 50 mg single dose): 145 nmol·h/L/mg
- AUC0-inf,norm gMean ([1]; 50 mg single dose): 169 nmol·h/L/mg
- Cmax,norm Max ([1]; 50 mg single dose): 29 nmol/L/mg
- Cmax,norm Median ([1]; 50 mg single dose): 22 nmol/L/mg
- Cmax,norm Min ([1]; 50 mg single dose): 14 nmol/L/mg
- Cmax,norm gMean ([1]; 50 mg single dose): 22 nmol/L/mg
- tmax Max ([1]; 50 mg single dose): 3.00 h
- tmax Min ([1]; 50 mg single dose): 0.750 h
- Cmax ([1]; 50 mg single dose, read-out: Cmax Max): 1450 nM
- AUC(0-inf) ([1]; human, plasma, oral, 2.5 mg, 2.5 mg single dose, read-out: AUC0-inf Mean): 0.396 µM·h
- AUC(0-inf) ([1]; human, plasma, oral, 2.5 mg, 2.5 mg single dose, read-out: AUC0-inf Median): 0.398 µM·h
- AUC(0-inf) ([1]; human, plasma, oral, 2.5 mg, 2.5 mg single dose, read-out: AUC0-inf gMean): 0.394 µM·h
- Cmax ([1]; human, plasma, oral, 2.5 mg, 2.5 mg single dose, read-out: Cmax Mean): 53.2 nM
- Cmax ([1]; human, plasma, oral, 2.5 mg, 2.5 mg single dose, read-out: Cmax Median): 55 nM
- Cmax ([1]; human, plasma, oral, 2.5 mg, 2.5 mg single dose, read-out: Cmax gMean): 52.9 nM
- Tmax ([1]; human, plasma, oral, 2.5 mg, 2.5 mg single dose, read-out: tmax Mean): 1.83 h
- Tmax ([1]; human, plasma, oral, 2.5 mg, 2.5 mg single dose, read-out: tmax Median): 1.75 h
- Tmax ([1]; human, plasma, oral, 2.5 mg, 2.5 mg single dose, read-out: tmax gMean): 1.72 h
- AUC(0-inf) ([1]; human, plasma, oral, 10 mg, 10 mg single dose, read-out: AUC0-inf Mean): 1.73 µM·h
- AUC(0-inf) ([1]; human, plasma, oral, 10 mg, 10 mg single dose, read-out: AUC0-inf Median): 1.78 µM·h
- AUC(0-inf) ([1]; human, plasma, oral, 10 mg, 10 mg single dose, read-out: AUC0-inf gMean): 1.69 µM·h
- Cmax ([1]; human, plasma, oral, 10 mg, 10 mg single dose, read-out: Cmax Mean): 226 nM
- Cmax ([1]; human, plasma, oral, 10 mg, 10 mg single dose, read-out: Cmax Median): 239 nM
- Cmax ([1]; human, plasma, oral, 10 mg, 10 mg single dose, read-out: Cmax gMean): 221 nM
- Tmax ([1]; human, plasma, oral, 10 mg, 10 mg single dose, read-out: tmax Mean): 1.42 h
- Tmax ([1]; human, plasma, oral, 10 mg, 10 mg single dose, read-out: tmax Median): 1.5 h
- Tmax ([1]; human, plasma, oral, 10 mg, 10 mg single dose, read-out: tmax gMean): 1.38 h
- AUC(0-inf) ([1]; human, plasma, oral, 25 mg, 25 mg single dose, read-out: AUC0-inf Mean): 3.83 µM·h
- AUC(0-inf) ([1]; human, plasma, oral, 25 mg, 25 mg single dose, read-out: AUC0-inf Median): 3.98 µM·h
- AUC(0-inf) ([1]; human, plasma, oral, 25 mg, 25 mg single dose, read-out: AUC0-inf gMean): 3.75 µM·h
- Cmax ([1]; human, plasma, oral, 25 mg, 25 mg single dose, read-out: Cmax Mean): 505 nM
- Cmax ([1]; human, plasma, oral, 25 mg, 25 mg single dose, read-out: Cmax Median): 520 nM
- Cmax ([1]; human, plasma, oral, 25 mg, 25 mg single dose, read-out: Cmax gMean): 490 nM
- Tmax ([1]; human, plasma, oral, 25 mg, 25 mg single dose, read-out: tmax Mean): 2.19 h
- Tmax ([1]; human, plasma, oral, 25 mg, 25 mg single dose, read-out: tmax Median): 2.05 h
- Tmax ([1]; human, plasma, oral, 25 mg, 25 mg single dose, read-out: tmax gMean): 2.06 h
- AUC(0-inf) ([1]; human, plasma, oral, 50 mg, 50 mg single dose, read-out: AUC0-inf Mean): 8.58 µM·h
- AUC(0-inf) ([1]; human, plasma, oral, 50 mg, 50 mg single dose, read-out: AUC0-inf Median): 8.29 µM·h
- AUC(0-inf) ([1]; human, plasma, oral, 50 mg, 50 mg single dose, read-out: AUC0-inf gMean): 8.46 µM·h
- Cmax ([1]; human, plasma, oral, 50 mg, 50 mg single dose, read-out: Cmax Mean): 1110 nM
- Cmax ([1]; human, plasma, oral, 50 mg, 50 mg single dose, read-out: Cmax Median): 1100 nM
- Cmax ([1]; human, plasma, oral, 50 mg, 50 mg single dose, read-out: Cmax gMean): 1080 nM
- Tmax ([1]; human, plasma, oral, 50 mg, 50 mg single dose, read-out: tmax Mean): 1.75 h
- Tmax ([1]; human, plasma, oral, 50 mg, 50 mg single dose, read-out: tmax Median): 1.5 h
- Tmax ([1]; human, plasma, oral, 50 mg, 50 mg single dose, read-out: tmax gMean): 1.59 h
SMILES: OC[C@H]1O[C@@H](c2ccc(Cl)c(Cc3ccc(O[C@H]4CCOC4)cc3)c2)[C@H](O)[C@@H](O)[C@@H]1O [Compound (I.9), 1-chloro-4-(β-D-glucopyranos-1-yl)-2-[4-((S)-tetrahydrofuran-3-yloxy)-benzyl]-benzene]
- reduced glucose excursion (baseline-corrected glucose AUC) ([2]; 0.3 mg/kg oral, not significant): 15%
- reduced glucose excursion (baseline-corrected glucose AUC) ([2]; 3 mg/kg oral, p<0.001): 62%
- reduced glucose excursion (baseline-corrected glucose AUC) ([2]; 30 mg/kg oral, p<0.001): 89%
